From the NIST ThermoML archive (doi:10.1016/j.tca.2013.03.008)
“And” between values parts separate entries of the source, which are not always exact repeats. Equal values may be shown once.

Tests used:
[1] = xn = mol fraction of the nth substance listed; conditions: 101 kPa, Liquid; for viscosity: Capillary tube (Ostwald / Ubbelohde) method; for mass density: Vibrating tube method
[2] = 101 kPa, Liquid; for viscosity: Capillary tube (Ostwald / Ubbelohde) method; for mass density: Vibrating tube method

CCC(C)O (stereo unspecified) [butan-2-ol] + CCOC(=O)CCl
[1], x1 = 1
Conditions	mass density [kg/m3]	viscosity [mPa·s]
298.15 K	802.62	2.998
308.15 K	794.13	2.17
318.15 K	785.22	1.476

CCC(C)O (stereo unspecified) [butan-2-ol] + CCC(=O)CC
[1], x2 = 0
Conditions	mass density [kg/m3]	viscosity [mPa·s]
298.15 K	802.62	2.998
308.15 K	794.13	2.17
318.15 K	785.22	1.476

CCC(=O)CC [pentan-3-one]
[2]
Conditions	mass density [kg/m3]	viscosity [mPa·s]
298.15 K	809.38	0.442
308.15 K	799.55	0.398
318.15 K	789.63	0.362

CCC(=O)CC [pentan-3-one] + CCOC(=O)CCl
[1], x1 = 1
Conditions	mass density [kg/m3]	viscosity [mPa·s]
298.15 K	809.38	0.442
308.15 K	799.55	0.398
318.15 K	789.63	0.362

CCC(C)O (stereo unspecified) [butan-2-ol]
[2]
Conditions	mass density [kg/m3]	viscosity [mPa·s]
298.15 K	802.62	2.998
308.15 K	794.13	2.17
318.15 K	785.22	1.476

CCOC(=O)CCl [ethyl chloroethanoate]
[2]
Conditions	mass density [kg/m3]	viscosity
298.15 K	1144.11	1.095 mPa·s
308.15 K	1131.46	0.934 mPa·s and 0.939 mPa·s
318.15 K	1118.74	0.816 mPa·s and 0.815 mPa·s
